Data from ChEMBL document CHEMBL3045735, “Antibacterial and molecular docking studies of entagenic acid, a bioactive principle from seed kernel of Entada pursaetha DC” (2012).
≈ marks a conversion by molar mass, not a printed value.

Tests used:
Assay type in all cases: functional
Escherichia coli [1] = experiment: Antibacterial activity against Escherichia coli NCIM-2065 after 24 hr by broth dilution method; details: NCIM-2065, 24 h
Bacillus subtilis [2] = experiment: Antibacterial activity against Bacillus subtilis NCIM-2063 after 24 hr by agar diffusion assay
Alcaligenes faecalis [3] = experiment: Antibacterial activity against Alcaligenes faecalis NCIM-2262 after 24 hr by agar diffusion assay
Klebsiella aerogenes [4] = experiment: Antibacterial activity against Enterobacter aerogenes NCIM 2036 after 24 hr by broth dilution method; details: NCIM-2036, 24 h
Klebsiella aerogenes [5] = experiment: Antibacterial activity against Enterobacter aerogenes NCIM 2036 after 24 hr by agar diffusion assay
Bacillus cereus [6] = experiment: Antibacterial activity against Bacillus cereus NCIM-2155 after 24 hr by broth dilution method; details: NCIM-2155, 24 h
Alcaligenes faecalis [7] = experiment: Antibacterial activity against Alcaligenes faecalis NCIM-2262 after 24 hr by broth dilution method; details: NCIM-2262, 24 h
Staphylococcus aureus [8] = experiment: Antibacterial activity against Staphylococcus aureus NCIM-2079 after 24 hr by agar diffusion assay
Proteus vulgaris [9] = experiment: Antibacterial activity against Proteus vulgaris NCIM-2027 after 24 hr by broth dilution method; details: NCIM-2027, 24 h
Bacillus cereus [10] = experiment: Antibacterial activity against Bacillus cereus NCIM-2155 after 24 hr by agar diffusion assay
Proteus vulgaris [11] = experiment: Antibacterial activity against Proteus vulgaris NCIM-2027 after 24 hr by agar diffusion assay
Escherichia coli [12] = experiment: Antibacterial activity against Escherichia coli NCIM-2065 after 24 hr by agar diffusion assay
Staphylococcus aureus [13] = experiment: Antibacterial activity against Staphylococcus aureus NCIM-2079 after 24 hr by broth dilution method; details: NCIM-2079, 24 h
Pseudomonas aeruginosa [14] = experiment: Antibacterial activity against Pseudomonas aeruginosa NCIM-2036 after 24 hr by agar diffusion assay
Bacillus subtilis [15] = experiment: Antibacterial activity against Bacillus subtilis NCIM-2063 after 24 hr by broth dilution method; details: NCIM-2063, 24 h
Pseudomonas aeruginosa [16] = experiment: Antibacterial activity against Pseudomonas aeruginosa NCIM-2036 after 24 hr by broth dilution method; details: NCIM-2036, 24 h

MIC (Escherichia coli [1])	MIC (Klebsiella aerogenes [4])	MIC (Bacillus cereus [6])	MIC (Alcaligenes faecalis [7])	MIC (Proteus vulgaris [9])	MIC (Staphylococcus aureus [13])	MIC (Bacillus subtilis [15])	MIC (Pseudomonas aeruginosa [16])	SMILES	diameter of the inhibition zone (DIZ) (Bacillus subtilis [2])	diameter of the inhibition zone (DIZ) (Alcaligenes faecalis [3])	diameter of the inhibition zone (DIZ) (Klebsiella aerogenes [5])	diameter of the inhibition zone (DIZ) (Staphylococcus aureus [8])	diameter of the inhibition zone (DIZ) (Bacillus cereus [10])	diameter of the inhibition zone (DIZ) (Proteus vulgaris [11])	diameter of the inhibition zone (DIZ) (Escherichia coli [12])	diameter of the inhibition zone (DIZ) (Pseudomonas aeruginosa [14])
250 µg/mL (≈ 512 µM)	300 µg/mL (≈ 614 µM)	100 µg/mL (≈ 205 µM)	150 µg/mL (≈ 307 µM)	250 µg/mL (≈ 512 µM)	100 µg/mL (≈ 205 µM)	100 µg/mL (≈ 205 µM)	150 µg/mL (≈ 307 µM)	CC1(C)CC[C@]2(C(=O)O)[C@H](O)[C@H](O)[C@]3(C)C(=CC[C@@H]4[C@@]5(C)CC[C@H](O)C(C)(C)[C@@H]5CC[C@]43C)[C@@H]2C1 [ENTAGENIC ACID]	18 mm	15 mm	6.5 mm	17.5 mm	22 mm	13.5 mm	13 mm	15 mm
–	–	–	–	–	–	–	–	CN[C@@H]1[C@H](O[C@H]2[C@H](O[C@H]3[C@H](O)[C@@H](O)[C@H](N=C(N)N)[C@@H](O)[C@@H]3N=C(N)N)O[C@@H](C)[C@]2(O)C=O)O[C@@H](CO)[C@H](O)[C@H]1O [STREPTOMYCIN]	22.33 mm	22.37 mm	19.38 mm	19.41 mm	20.53 mm	24.36 mm	18.42 mm	21.15 mm
